Experimental data from US20060019907A1, “Guggulsterone: an inhibitor of nuclear factor - kappaB and IkappaBalpha kinase activation and uses thereof” (Research Development Foundation, priority 2004, published 2006).

B1: NF-κB p50 subunit (NF-κB1) in nuclear extracts of TNF-treated human H1299 cells (other, UniProt P19838 1-433, looked up)
chain: MAEDDPYLGRPEQMFHLDPSLTHTIFNPEVFQPQMALPTDGPYLQILEQPKQRGFRFRYVCEGPSHGGLPGASSEKNKKSYPQVKICNYVGPAKVIVQLVTNGKNIHLHAHSLVGKHCEDGICTVTAGPKDMVVGFANLGILHVTKKKVFETLEARMTEACIRGYNPGLLVHPDLAYLQAEGGGDRQLGDREKELIRQAALQQTKEMDLSVVRLMFTAFLPDSTGSFTRRLEPVVSDAIYDSKAPNASNLKIVRMDRTAGCVTGGEEIYLLCDKVQKDDIQIRFYEEEENGGVWEGFGDFSPTDVHRQFAIVFKTPKYKDINITKPASVFVQLRRKSDLETSEPKPFLYYPEIKDKEEVQRKRQKLMPNFSDSFGGGSGAGAGGGGMFGSGGGGGGTGSTGPGYSFPHYGFPTYGGITFHPGTTKSNAGMKHG

Legend:
U937 cells = experiment: Cytotoxicity (MTT uptake) of guggulsterone with JNK inhibitor; format: cell-based, human; conditions: 72 h
Method: Cytotoxicity assay. The cytotoxic effects of guggulsterone was determined by the MTT uptake method. Briefly, 5000 cells were incubated with guggulsterone in triplicate in a 96-well plate at 37° C. MTT solution was then added to each well. After a 2-h incubation at 37° C., extraction buffer (20% SDS, 50% dimethylformamide) was added, the cells were incubated overnight at 37° C., and the OD was then measured at 570 nm using a 96-well multiscanner (Dynex Technologies, MRX Revelation, Chantilly, Va.).

[1] = biological target: NF-κB p65 subunit (RelA) in nuclear extracts of TNF-treated human H1299 cells (human, UniProt Q04206 1-551); experiment: EMSA supershift assay, nuclear extracts of TNF-treated H1299 cells
Method: Nuclear extracts were prepared and tested for NF-κB activation. […] H1299 cells (2×10⁶/ml) were pre-incubated with 50 μM guggulsterone for the indicated times at 37° C. and then treated with 0.1 nM TNF for 30 min at 37° C. Nuclear extracts were prepared and then tested for NF-κB activation. […] Nuclear extracts from H1299 cells (2×10⁶/ml) treated or not treated with 0.1 nM TNF for 30 min were incubated with the antibodies indicated for 30 min at room temperature, and the complex was analyzed by supershift assay. […] Nuclear extracts from H1299 cells (2×10⁶/ml) treated or not treated with 0.1 nM TNF for 30 min were treated with the indicated concentrations of guggulsterone for 4 hours at room temperature and then assayed for DNA binding by EMSA.
NF-κB Activation: To determine NF-κB activation, EMSA was carried out as previously described (Chaturvedi et al., 2000). […] For supershift assays, nuclear extracts prepared from TNF-treated cells were incubated with antibodies against either the p50 or the p65 subunit of NF-κB for 30 min at room temperature before the complex was analyzed by EMSA. The dried gels were visualized, and radioactive bands were quantitated using a PHOSPHORIMAGER™ (Molecular Dynamics, Sunnyvale, Calif.) using IMAGEQUANT™ software.

Chain of NF-κB p65 subunit (RelA) in nuclear extracts of TNF-treated human H1299 cells (Q04206 whole entry): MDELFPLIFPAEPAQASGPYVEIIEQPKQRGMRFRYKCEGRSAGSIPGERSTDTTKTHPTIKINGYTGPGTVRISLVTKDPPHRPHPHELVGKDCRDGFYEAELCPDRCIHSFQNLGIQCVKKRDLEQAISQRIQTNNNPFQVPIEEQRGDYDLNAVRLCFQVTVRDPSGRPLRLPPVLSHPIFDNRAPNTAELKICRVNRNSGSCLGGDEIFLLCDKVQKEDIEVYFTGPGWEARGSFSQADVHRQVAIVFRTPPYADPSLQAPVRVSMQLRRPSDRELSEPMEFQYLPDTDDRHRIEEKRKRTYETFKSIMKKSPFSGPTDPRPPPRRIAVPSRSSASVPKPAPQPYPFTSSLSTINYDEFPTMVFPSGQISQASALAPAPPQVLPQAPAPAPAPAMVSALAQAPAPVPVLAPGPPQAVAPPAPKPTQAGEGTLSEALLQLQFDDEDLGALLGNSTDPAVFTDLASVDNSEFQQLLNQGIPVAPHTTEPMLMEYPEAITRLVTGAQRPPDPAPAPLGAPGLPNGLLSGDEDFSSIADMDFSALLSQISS

Molecule | guggulsterone induced cytotoxicity in combination with JNK inhibitor (U937 cells) | binding result [1]
Oc1c2ccccc2c2c3c(cccc13)N=N2 [SP600125] | blocks guggulsterone induced cytotoxicity | –
B1 | – | binds
